Laboratory results reported in patent US7435837B2, “Dihydrobenzofuranyl alkanamine derivatives and methods for using same” (Wyeth, priority 2003, dated 2008).

Legend:
[1] = target: T1, human 5-hydroxytryptamine-2C (h5-HT2C) receptor (Homo sapiens, UniProt P28335); experiment: [125I]DOI binding to membranes of CHO cells expressing the human 5-HT2C receptor; settings: [125I]DOI radioligand, CHO cell membranes, room temperature 60 min; read-out: 5-HT2C Affinity Ki
T1 construct: expressed in transfected cells; host or cells: CHO (Chinese Hamster Ovary) cells; membranes
T1 sequence (P28335 33-458): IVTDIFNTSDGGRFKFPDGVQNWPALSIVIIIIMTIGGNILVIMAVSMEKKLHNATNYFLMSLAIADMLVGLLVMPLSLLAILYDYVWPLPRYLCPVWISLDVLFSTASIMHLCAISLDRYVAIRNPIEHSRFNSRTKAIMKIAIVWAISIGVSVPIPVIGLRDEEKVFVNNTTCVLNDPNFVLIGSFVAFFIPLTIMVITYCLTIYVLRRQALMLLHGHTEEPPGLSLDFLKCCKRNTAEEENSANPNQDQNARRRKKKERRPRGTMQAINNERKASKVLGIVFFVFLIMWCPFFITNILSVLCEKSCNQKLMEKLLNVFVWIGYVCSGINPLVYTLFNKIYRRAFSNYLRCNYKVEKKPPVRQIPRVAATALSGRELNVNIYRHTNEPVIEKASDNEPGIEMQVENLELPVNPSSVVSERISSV

human 5-HT2C receptor = target: T2, human 5-HT2C receptor (Homo sapiens, UniProt P28335); experiment: 5-HT2C receptor-stimulated calcium mobilization (FLIPR) in CHO cells; format: cell-based; settings: for EC50: calcium mobilization, CHO cells stably expressing human 5-HT2C, read-out: 5-HT2C Function EC50; for 5-HT2C Function Emax (%) / Emax: percentage of the response observed with a maximally effective concentration of 5-HT; for Emax: CHO, read-out: 5-HT2C Function Emax (%);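 on all read-outs here: Fluo-3-AM fluorescence read on FLIPR every 1 s, agonist added after 10 baseline reads, response taken as peak minus lowest raw fluorescence count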
T2 sequence (P28335 33-458): T1 sequence (P28335 33-458)

For `NCC1Cc2c(cccc2-c2ccccc2C(F)(F)F)O1` (single isomer, unassigned; (-)) [Example 123, (−)-1-{4-[2-(trifluoromethyl)phenyl]-2,3-dihydro-1-benzofuran-2-yl}methanamine], the Ki [1] was 207 nM.

Work on `NCC1Cc2cccc(Nc3ccc(Cl)cc3)c2O1` (racemic) [Example 175, (±)-N-[2-(aminomethyl)-2,3-dihydro-1-benzofuran-7-yl]-N-(4-chlorophenyl)amine] yielded a Ki [1] of 384 nM.

Work on `NCC1Cc2cc(F)cc(-c3cccc(F)c3)c2O1` (racemic) [Example 196, (±)-{[5-fluoro-7-(3-fluorophenyl)-2,3-dihydro-1-benzofuran-2-yl]methyl}amine] yielded a Ki [1] of 108 nM.

Work on `NCC1Cc2cccc(Nc3ccc(C(F)(F)F)cc3)c2O1` (racemic) [Example 177, (±)-N-[2-(aminomethyl)-2,3-dihydro-1-benzofuran-7-yl]-N-[4-(trifluoromethyl)phenyl]amine] yielded a Ki [1] of 353 nM.

`Cc1ccc(Nc2cccc3c2OC(CN)C3)cc1` (racemic) [Example 174, (±)-N-[2-(aminomethyl)-2,3-dihydro-1-benzofuran-7-yl]-N-(4-methylphenyl)amine] gave a Ki [1] of 203 nM.

In the case of `Cc1ccc(Nc2cccc3c2OC(CN)C3)c(C)c1` (racemic) [Example 180, (±)-N-[2-(aminomethyl)-2,3-dihydro-1-benzofuran-7-yl]-N-(2,4-dimethylphenyl)amine], the Ki [1] is reported as 290 nM.

With `NCC1Cc2cc(C(F)(F)F)cc(-c3ccc(C(F)(F)F)cc3)c2O1` (racemic) [Example 327, (±)-{[5-(trifluoromethyl)-7-(4-(trifluoromethyl)phenyl)-2,3-dihydro-1-benzofuran-2-yl]methyl}amine] the Ki [1] was 255 nM.

Compound `CNCC1Cc2cc(C(F)(F)F)cc(-c3cc(C(F)(F)F)cc(C(F)(F)F)c3)c2O1` (racemic) [Example 527, (±)-{[7-[3,5-bis(trifluoromethyl)phenyl]-5-(trifluoromethyl)-2,3-dihydro-1-benzofuran-2-yl]methyl}methylamine] has a Ki [1] of 4740 nM.

`CCCCc1ccc(-c2cc(C(F)(F)F)cc3c2OC(CN)C3)cc1` (racemic) [Example 339, (±)-{[7-(4-butylphenyl)-5-(trifluoromethyl)-2,3-dihydro-1-benzofuran-2-yl]methyl}amine] was tested, and the Ki [1] was 328 nM.

`Cc1cc(Cl)ccc1-c1cc(F)cc2c1O[C@@H](CN)C2` [Example 549, {[(2R)-7-(4-chloro-2-methylphenyl)-5-fluoro-2,3-dihydro-1-benzofuran-2-yl]methyl}amine] was tested, and the Ki [1] was 3.1 nM.

`NCC1Cc2cc(-c3ccccc3)cc(-c3ccccc3Cl)c2O1` (racemic) [Example 345, (±)-{[7-(2-chlorophenyl)-5-phenyl-2,3-dihydro-1-benzofuran-2-yl]methyl}amine] showed a Ki [1] of 98 nM.

`CC(C)c1ccccc1-c1cccc2c1OC(CN)C2` (single isomer, unassigned; (-)) [Example 63, (−)-[7-(2-isopropylphenyl)-2,3-dihydro-1-benzofuran-2-yl]methylamine] showed a Ki [1] of 52 nM.

Work on `Cc1ccc(-c2cc(-c3ccccc3)cc3c2OC(CN)C3)cc1` (racemic) [Example 353, (±)-{[7-(4-methylphenyl)-5-phenyl-2,3-dihydro-1-benzofuran-2-yl]methyl}amine] yielded a Ki [1] of 845 nM.

Compound `NCC1Cc2cccc(Nc3ccccc3)c2O1` (racemic) [Example 173, (±)-N-[2-(aminomethyl)-2,3-dihydro-1-benzofuran-7-yl]-N-phenylamine] has a Ki [1] of 326 nM.

With `COc1cc2c(c(-c3cc(Cl)ccc3Cl)c1)OC(CN)C2` (single isomer, unassigned; (-)) [Example 369, (−)-{[7-(2,5-dichlorophenyl)-5-methoxy-2,3-dihydro-1-benzofuran-2-yl]methyl}amine] the EC50 (human 5-HT2C receptor) was 283 nM and the “5-HT2C Function Emax (%)” value (human 5-HT2C receptor) was 90%.

Work on `Fc1cc2c(c(-c3c(Cl)cccc3Cl)c1)OC(CN1CCCC1)C2` (racemic) [Example 240, (±)-1-{[7-(2,6-dichlorophenyl)-5-fluoro-2,3-dihydro-1-benzofuran-2-yl]methyl}pyrrolidine] yielded an Emax (human 5-HT2C receptor) of 70% and an EC50 (human 5-HT2C receptor) of 89 nM.

In the case of `CNCC1Cc2cc(Cl)cc(-c3cc(Cl)ccc3Cl)c2O1` (single isomer, unassigned; (-)) [Example 563, (−)-{[5-chloro-7-(2,5-dichlorophenyl)-2,3-dihydro-1-benzofuran-2-yl]methyl}methylamine], the EC50 (human 5-HT2C receptor) is reported as 135 nM and the “5-HT2C Function Emax (%)” value (human 5-HT2C receptor) is reported as 70%.

With `NCC1Cc2cccc(-c3cccc(F)c3F)c2O1` (racemic) [Example 160, (±)-{[7-(2,3-difluorophenyl)-2,3-dihydro-1-benzofuran-2-yl]methyl}amine] the Emax (human 5-HT2C receptor) was 100% and the EC50 (human 5-HT2C receptor) was 32 nM.

For `Cc1cccc(C)c1-c1cc(F)cc2c1OC(CN)C2` (single isomer, unassigned; (+)) [Example 228, (+)-{[7-(2,6-dimethylphenyl)-5-fluoro-2,3-dihydro-1-benzofuran-2-yl]methyl}amine], the EC50 (human 5-HT2C receptor) was 313 nM and the “5-HT2C Function Emax (%)” value (human 5-HT2C receptor) was 70%.

With `CNCC1Cc2cccc(-c3cccc(C)c3C)c2O1` (racemic) [Example 422, (±)-[(N-methyl-1-[7-(2,3-dimethylphenyl)-2,3-dihydro-1-benzofuran-2-yl]methanamine] the Emax (human 5-HT2C receptor) was 80% and the EC50 (human 5-HT2C receptor) was 443 nM.

`COc1cccc(-c2cc(F)cc3c2OC(CN)C3)c1OC` (single isomer, unassigned; (-)) [Example 213, (−)-{[7-(2,3-dimethoxyphenyl)-5-fluoro-2,3-dihydro-1-benzofuran-2-yl]methyl}amine] was tested, and the EC50 (human 5-HT2C receptor) was 9 nM and the “5-HT2C Function Emax (%)” value (human 5-HT2C receptor) was 100%.

With `CNCC1Cc2cccc(-c3cccnc3)c2O1` (racemic) [Example 436, (±)-N-methyl-1-(7-pyridin-3-yl-2,3-dihydro-1-benzofuran-2-yl)methanamine] the Emax (human 5-HT2C receptor) was 90% and the EC50 (human 5-HT2C receptor) was 55 nM.

With `COc1cccc(-c2cc(C)cc3c2OC(CN)C3)c1OC` (single isomer, unassigned; (-)) [Example 295, (−)-{[7-(2,3-dimethoxyphenyl)-5-methyl-2,3-dihydro-1-benzofuran-2-yl]methyl}amine] the Emax (human 5-HT2C receptor) was 90% and the EC50 (human 5-HT2C receptor) was 8 nM.

For `Clc1cccc(Cl)c1-c1cccc2c1OC(CNC1CC1)C2` (racemic) [Example 391, (±)-N-{[7-(2,6-dichlorophenyl)-2,3-dihydro-1-benzofuran-2-yl]methyl}cyclopropanamine], the Emax (human 5-HT2C receptor) was 80% and the EC50 (human 5-HT2C receptor) was 0.2 nM.

`CNCC1Cc2cc(Cl)cc(-c3cccc(C)c3C)c2O1` (racemic) [Example 465, (±)-{[5-chloro-7-(2,3-dimethylphenyl)-2,3-dihydro-1-benzofuran-2-yl]methyl}methylamine] was tested, and the Emax (human 5-HT2C receptor) was 60% and the EC50 (human 5-HT2C receptor) was 496 nM.

`CNCC1Cc2cc(F)cc(-c3c(C)cccc3C)c2O1` (single isomer, unassigned; (+)) [Example 558, (+)-{[7-(2,6-dimethylphenyl)-5-fluoro-2,3-dihydro-1-benzofuran-2-yl]methyl}methylamine] gave an Emax (human 5-HT2C receptor) of 70% and an EC50 (human 5-HT2C receptor) of 265 nM.

For `CCCNCC1Cc2cc(F)cc(-c3c(Cl)cccc3Cl)c2O1` (racemic) [Example 235, (±)-N-{[7-(2,6-dichlorophenyl)-5-fluoro-2,3-dihydro-1-benzofuran-2-yl]methyl}propan-1-amine], the Emax (human 5-HT2C receptor) was 50% and the EC50 (human 5-HT2C receptor) was 49 nM.

In the case of `CCNCC1Cc2cc(F)cc(-c3c(Cl)cccc3Cl)c2O1` (racemic) [Example 234, (±)-N-{[7-(2,6-dichlorophenyl)-5-fluoro-2,3-dihydro-1-benzofuran-2-yl]methyl}ethanamine], the Emax (human 5-HT2C receptor) is reported as 90% and the EC50 (human 5-HT2C receptor) is reported as 11 nM.

With `CNCC1Cc2cccc(-c3cc(F)ccc3F)c2O1` (racemic) [Example 428, (±)-[(N-methyl-1-[7-(2,5-difluorophenyl)-2,3-dihydro-1-benzofuran-2-yl]methanamine] the Emax (human 5-HT2C receptor) was 80% and the EC50 (human 5-HT2C receptor) was 69 nM.

Compound `CNCC1Cc2cc(Cl)cc(-c3c(C)cccc3C)c2O1` (racemic) [Example 461, (±)-{[5-chloro-7-(2,6-dimethylphenyl)-2,3-dihydro-1-benzofuran-2-yl]methyl}methylamine] has an Emax (human 5-HT2C receptor) of 80% and an EC50 (human 5-HT2C receptor) of 34 nM.

With `CNCC1Cc2cc(Cl)cc(-c3cccc(OC)c3OC)c2O1` (racemic) [Example 466, (±)-{[5-chloro-7-(2,3-dimethoxyphenyl)-2,3-dihydro-1-benzofuran-2-yl]methyl}methylamine] the Emax (human 5-HT2C receptor) was 70% and the EC50 (human 5-HT2C receptor) was 55 nM.

`CNCC1Cc2cc(Cl)cc(-c3cc(Cl)ccc3Cl)c2O1` (racemic) [Example 471, (±)-{[5-chloro-7-(2,5-dichlorophenyl)-2,3-dihydro-1-benzofuran-2-yl]methyl}methylamine] gave an Emax (human 5-HT2C receptor) of 90% and an EC50 (human 5-HT2C receptor) of 14 nM.

Work on `CNCC1Cc2cc(Cl)cc(-c3c(C)cccc3C)c2O1` (single isomer, unassigned; (-)) [Example 564, (−)-{[5-chloro-7-(2,6-dimethylphenyl)-2,3-dihydro-1-benzofuran-2-yl]methyl}methylamine] yielded an Emax (human 5-HT2C receptor) of 90% and an EC50 (human 5-HT2C receptor) of 43 nM.

For `CNCC1Cc2cc(Cl)cc(-c3ccc(F)cc3F)c2O1` (racemic) [Example 467, (±)-{[5-chloro-7-(2,4-difluorophenyl)-2,3-dihydro-1-benzofuran-2-yl]methyl}methylamine], the Emax (human 5-HT2C receptor) was 80% and the EC50 (human 5-HT2C receptor) was 257 nM.
